Experimental data taken from ChEMBL document CHEMBL5360530, “Structure activity relationship (SAR) and anticancer activity of pyrrolidine derivatives: Recent developments and future prospects (A review)” (Eur J Med Chem, 2023).

What was measured:
[1] = tested on: HT-29; assay: Anticancer activity against human HT-29 cells assessed as cell growth inhibition measured after 48 hrs by MTT assay; format: functional, cell-based; conditions: HT-29, 48 h
[2] = tested on: MCF7; assay: Anticancer activity against human MCF7 cells assessed as cell growth inhibition measured after 48 hrs by MTT assay; format: functional, cell-based; conditions: MCF7, 48 h
[3] = tested on: K562; assay: Anticancer activity against human K562 cells assessed as cell growth inhibition measured after 48 hrs by MTT assay; format: functional, cell-based; conditions: K562, 48 h
[4] = tested on: HT-29; assay: Anticancer activity against human HT-29 cells xenografted with BALB/c mouse assessed as tumor growth inhibition at 50 mg/kg, po measured twice daily for 20 days relative to control; format: functional; conditions: HT-29, 480 h, time 20 day, read-out: TGI
[5] = tested on: HT-29; assay: Anticancer activity against human HT-29 cells xenografted with BALB/c mouse assessed as tumor growth inhibition at 50 mg/kg, iv measured twice daily for 20 days relative to control; format: functional; conditions: HT-29, 480 h, time 20 day, read-out: TGI
[6] = Cytotoxicity against human Chang liver cells assessed as cell growth inhibition measured after 24 hrs by DAPI and propidium iodide staining based assay; format: toxicity
[7] = tested on: M-HeLa; assay: Induction of apoptosis in human HelaM cells upto 100 uM measured after 24 hrs relative to control; format: functional; conditions: up to 100 µM
[8] = tested on: M-HeLa; assay: Anticancer activity against human HelaM cells assessed as cell growth inhibition measured after 24 hrs by DAPI and propidium iodide staining based assay; format: functional
[9] = tested on: HepG2; assay: Anticancer activity against human HepG2 cells assessed as cell growth inhibition measured after 24 hrs by SRB assay; format: functional, cell-based; conditions: HepG2, 24 h
[10] = tested on: MCF7; assay: Anticancer activity against human MCF7 cells assessed as cell growth inhibition measured after 24 hrs by SRB assay; format: functional, cell-based; conditions: MCF7, 24 h
[11] = tested on: HCT-116; assay: Anticancer activity against human HCT-116 cells assessed as cell growth inhibition measured after 24 hrs by SRB assay; format: functional, cell-based; conditions: HCT-116, 24 h

Cc1ccc(C2CC(c3ccc(F)cc3)=NN2C(=O)CN2C(=O)CCC2=O)cc1 (stereo unspecified) showed an IC50 [1] of 0.92 µM, an IC50 [2] of 0.07 µM and an IC50 [3] of 47.2 µM. The inhibition in vivo at 50 mg/kg [4] was 60% and the inhibition in vivo at 50 mg/kg [5] was 66%.

For Oc1cc2c(cc1C1CCCCC1)OCO2, the IC50 at 24 h [6] was > 100 µM, the Activity [7] was 25% and the IC50 [8] was 14.7 µM.

Compound COc1cccc2c1C(=O)c1c(O)c3c(c(O)c1C2=O)C[C@@](O)(C(=O)CO)C[C@@H]3O[C@H]1C[C@H](N)[C@H](O)[C@H](C)O1 [DOXORUBICIN] has an IC50 [9] of 5.59 µM, an IC50 [10] of 4.89 µM and an IC50 [11] of 7.03 µM.
